From patent US20160296499A1, “Spiroindoline Antiparasitic Derivatives” (ZOETIS SERVICES LLC, priority 2013, published 2016)
Where two headings read alike, the source gives them in different places.

Legend:
Haemonchus contortus L3 = assay: Haemonchus contortus, Larvae Stage 3 (HcL3) In Vitro Assay
[1] = tested on: Dirofilaria immitis microfilariae; assay: Dirofilaria immitis, Microfilariae (DiMF) In Vitro Assay
[2] = molecular target: T1, bovine vesicular acetylcholine transporter (VAChT) (Bos taurus, UniProt E1BK36); assay: Radioligand Binding Assay; details: Bovine binding Ki, CHO-K1 membranes with recombinant bovine VAChT, [3H]Compound X6 0.3 nM
T1 sequence (E1BK36 1-524): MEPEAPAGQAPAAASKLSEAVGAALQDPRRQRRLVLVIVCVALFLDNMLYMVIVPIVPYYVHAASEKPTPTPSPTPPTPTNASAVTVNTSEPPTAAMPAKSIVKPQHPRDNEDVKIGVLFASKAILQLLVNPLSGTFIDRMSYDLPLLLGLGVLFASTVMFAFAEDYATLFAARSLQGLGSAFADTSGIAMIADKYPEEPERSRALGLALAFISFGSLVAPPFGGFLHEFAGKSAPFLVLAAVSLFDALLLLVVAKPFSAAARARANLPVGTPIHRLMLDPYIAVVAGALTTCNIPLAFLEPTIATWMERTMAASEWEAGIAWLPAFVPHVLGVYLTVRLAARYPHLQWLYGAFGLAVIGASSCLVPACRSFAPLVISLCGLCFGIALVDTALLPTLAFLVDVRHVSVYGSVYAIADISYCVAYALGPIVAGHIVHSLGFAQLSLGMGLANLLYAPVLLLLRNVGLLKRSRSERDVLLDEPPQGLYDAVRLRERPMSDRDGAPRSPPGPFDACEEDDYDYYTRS

[3] = Haemonchus contortus, 96 h, read-out: HcL3 MEC, Minimal Effective Concentration whereby worm motility is inhibited by approximately 70%, 37° C., tested 0.001-100 μM
[4] = Dirofilaria immitis, 72 h, read-out: Di MF, MEC, decrease in microfilariae motility by visual assessment, curve starting at 100 μM
[5] = Haemonchus contortus, 96 hours, 37° C., read-out: HcL3 MEC
[6] = Dirofilaria immitis, 72 hours, read-out: Di MF

Compound | minimal effective concentration (Haemonchus contortus L3; [3]) [µM] | minimal effective concentration [1, 4] [µM] | Ki [2] [nM] | minimal effective concentration (Haemonchus contortus L3; Minimal Effective Concentration whereby worm motility is inhibited by approximately 70%, 96 hours, 37° C., tested 0.001-100 μM, read-out: HcL3 MEC) [µM] | minimal effective concentration ([1]; MEC, decrease in microfilariae motility by visual assessment, 72 hours, curve starting at 100 μM, read-out: Di MF) [µM] | minimal effective concentration (Haemonchus contortus L3; [5]) [µM] | minimal effective concentration [1, 6] [µM]
O=C(NCc1ccnc(Cl)c1)N1CC2(CCN(C/C=C/c3ccc(Cl)c(Cl)c3)CC2)c2c(Br)cccc21 [Example 102, (E)-4-bromo-N-((2-chloropyridin-4-yl)methyl)-1′-(3-(3,4-dichlorophenyl)allyl)spiro[indoline-3,4′-piperidine]-1-carboxamide] | 5.3 | 10 | 144 |  |  |  | 
O=C(NCc1ccnc(Cl)c1)N1CC2(CCN(C/C=C/c3ccc(Cl)cc3)CC2)c2cc(OC(F)(F)F)ccc21 [Example 185, (E)-1′-(3-(4-chlorophenyl)allyl)-N-((2-chloropyridin-4-yl)methyl)-5-(trifluoromethoxy)spiro[indoline-3,4′-piperidine]-1-carboxamide] |  |  | 283 | 3.3 | 10.0 |  | 
N#Cc1ccc2c(n1)C1(CCN(C/C=C/c3ccc(Cl)cc3)CC1)CN2C(=O)NCc1ccnc(Cl)c1 [Example 87, (E)-1-(3-(4-chlorophenyl)allyl)-N-((2-chloropyridin-4-yl)methyl)-5′-cyanospiro[piperidine-4,3′-pyrrolo[3,2-b]pyridine]-1′(2′H)-carboxamide] | 18.2 | 5.7 | 38.1 |  |  |  | 
O=C(NCc1ccnc(Cl)c1)N1CC2(CCN(C/C=C/c3ccc(Cl)c(Cl)c3)CC2)c2cc(Cl)c(C(F)(F)F)cc21 [Example 135, (E)-5-chloro-N-((2-chloropyridin-4-yl)methyl)-1′-(3-(3,4-dichlorophenyl)allyl)-6-(trifluoromethyl)spiro[indoline-3,4′-piperidine]-1-carboxamide] |  |  | 118 |  |  | 3.3 | 57.4
O=C(NCc1ccnc(C(F)(F)F)c1)N1CC2(CCN(C/C=C/c3ccc(C(F)(F)F)cc3)CC2)c2cc(OC(F)(F)F)ccc21 [Example 177, (E)-5-(trifluoromethoxy)-1′-(3-(4-(trifluoromethyl)phenyl)allyl)-N-((2-(trifluoromethyl)pyridin-4-yl)methyl)spiro[indoline-3,4′-piperidine]-1-carboxamide] | 100 | 3.3 | 1670 |  |  |  | 
O=C(NCc1ccnc(Cl)c1)N1CC2(CCN(C/C=C/c3ccc(OC(F)(F)F)cc3)CC2)c2cc(C(F)(F)F)ccc21 [Example 172, (E)-N-((2-chloropyridin-4-yl)methyl)-1′-(3-(4-(trifluoromethoxy)phenyl)allyl)-5-(trifluoromethyl)spiro[indoline-3,4′-piperidine]-1-carboxamide] | 100 | 5.7 | 921 |  |  |  | 
O=C(NCc1ccnc(Cl)c1)N1CC2(CCN(C/C=C/c3ccc(C(F)(F)F)cn3)CC2)c2c1ccc1scnc21 [Example 41, (E)-N-((2-chloropyridin-4-yl)methyl)-1-(3-(5-(trifluoromethyl)pyridin-2-yl)allyl)spiro[piperidine-4,8′-thiazolo[4,5-e]indole]-6′(7′H)-carboxamide] | > 100 | 33 | 428 |  |  |  | 
Cc1cccc2c1C1(CCN(C/C=C/c3ccc(Cl)c(Cl)c3)CC1)CN2C(=O)NCc1ccnc(F)c1 [Example 114, 1′-[(E)-3-(3,4-dichlorophenyl)allyl]-N-[(2-fluoro-4-pyridyl)methyl]-4-methyl-spiro[indoline-3,4′-piperidine]-1-carboxamide] | 5.7 | 10 | 241 |  |  |  | 
O=C(NCc1ccnc(Cl)c1)N1CC2(CCN(C/C=C/c3ccc(Cl)cc3)CC2)c2cc(Cl)c(Cl)cc21 [Example 142, (E)-5,6-dichloro-1′-(3-(4-chlorophenyl)allyl)-N-((2-chloropyridin-4-yl)methyl)spiro[indoline-3,4′-piperidine]-1-carboxamide] |  |  | 107 |  |  | 3.3 | 7.6
N#Cc1cc2c(cn1)N(C(=O)NCc1ccnc(Cl)c1)CC21CCN(C/C=C/c2ccc(Cl)c(Cl)c2)CC1 [Example 66, (E)-N-((2-chloropyridin-4-yl)methyl)-5′-cyano-1-(3-(3,4-dichlorophenyl)allyl)spiro[piperidine-4,3′-pyrrolo[2,3-c]pyridine]-1′(2′H)-carboxamide] | 1.8 | 10 | 24.1 |  |  |  | 
O=C(NCc1ccnc(F)c1)N1CC2(CCN(C/C=C/c3ccc(F)cc3)CC2)c2ccc(C(F)(F)F)cc21 [Example 101, (E)-1′-(3-(4-fluorophenyl)allyl)-N-((2-fluoropyridin-4-yl)methyl)-6-(trifluoromethyl)spiro[indoline-3,4′-piperidine]-1-carboxamide] |  |  | 65.2 |  |  | 3.3 | 10
Cn1ncc2c3c(ccc21)N(C(=O)NCc1ccnc(Cl)c1)CC31CCN(C/C=C/c2ccc(F)cc2)CC1 [Example 52, (E)-N-((2-chloropyridin-4-yl)methyl)-1-(3-(4-fluorophenyl)allyl)-3′-methyl-3′H-spiro[piperidine-4,8′-pyrrolo[3,2-e]indazole]-6′(7′H)-carboxamide] | > 100 | 10 | 778 |  |  |  | 
COc1ccc(/C=C/CN2CCC3(CC2)CN(C(=O)NCc2ccnc(Cl)c2)c2ccc(C(F)(F)F)cc23)cc1 [Example 168, (E)-N-((2-chloropyridin-4-yl)methyl)-1′-(3-(4-methoxyphenyl)allyl)-5-(trifluoromethyl)spiro[indoline-3,4′-piperidine]-1-carboxamide] |  |  | 266 |  |  | 33 | 3.3
O=C(NCc1ccnc(F)c1)N1CC2(CCN(C/C=C/c3ccc(Cl)c(Cl)c3)CC2)c2c(Br)cccc21 [Example 103, 4-bromo-1′-[(E)-3-(3,4-dichlorophenyl)allyl]-N-[(2-fluoro-4-pyridyl)methyl]spiro[indoline-3,4′-piperidine]-1-carboxamide] | 3.3 | 5.7 | 466 |  |  |  | 
N#Cc1cc2c(cc1C(F)(F)F)N(C(=O)NCc1ccnc(Cl)c1)CC21CCN(C/C=C/c2ccc(Cl)c(Cl)c2)CC1 [Example 132, (E)-N-((2-chloropyridin-4-yl)methyl)-5-cyano-1′-(3-(3,4-dichlorophenyl)allyl)-6-(trifluoromethyl)spiro[indoline-3,4′-piperidine]-1-carboxamide] |  |  | 49.9 |  |  | 3.3 | 3.3
O=C(NCc1ccnc(F)c1)N1CC2(CCN(C/C=C/c3ccc(Cl)cc3)CC2)c2c(-c3ccccc3)cccc21 [Example 91, (E)-1′-(3-(4-chlorophenyl)allyl)-N-((2-fluoropyridin-4-yl)methyl)-4-phenylspiro[indoline-3,4′-piperidine]-1-carboxamide] | 100 | 3.3 | 295 |  |  |  | 
O=C(NCc1ccnc(Cl)c1)N1CC2(CCN(C/C=C/c3ccc(C(F)(F)F)cc3)CC2)c2c1cccc2C(F)(F)F [Example 152, (E)-N-((2-chloropyridin-4-yl)methyl)-4-(trifluoromethyl)-1′-(3-(4-(trifluoromethyl)phenyl)allyl)spiro[indoline-3,4′-piperidine]-1-carboxamide] | 5.7 | 4.4 | 1320 |  |  |  | 
